Measurements taken from ChEMBL document CHEMBL1201862, “PubChem BioAssay data set” (2004).
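48-hour exposure; five concentrations; linearly interpolated endpoints. GI50 marks 50% less growth.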 Calls of active or inactive are those of the source. Rule as the data show it: active = GI50 up to about 1.1 µM and inactive = higher.

How the values were obtained:
Experiment in all cases: NCI tumour cell line growth inhibition, 48 h
MCF7 = test system: MCF7
NCI-H23 = test system: NCI-H23
DU-145 = test system: DU-145
K562 = test system: K562
NCI-H522 = test system: NCI-H522
SK-OV-3 = test system: SK-OV-3
SK-MEL-5 = test system: SK-MEL-5
NCI-H460 = test system: NCI-H460
OVCAR-8 = test system: OVCAR-8
SNB-19 = test system: SNB-19
UACC-62 = test system: UACC-62
A498 = test system: A498
MOLT-4 = test system: MOLT-4
UO-31 = test system: UO-31
T47D = test system: T47D
LOX IMVI = test system: LOX IMVI
HOP-92 = test system: HOP-92
CCRF-CEM = test system: CCRF-CEM
SNB-75 = test system: SNB-75
PC-3 = test system: PC-3

Measured: GI50

O=C(OCC(OC(=O)c1ccccc1)C(OC(=O)c1ccccc1)C(OC(=O)c1ccccc1)c1cnn(-c2ccccc2)n1)c1ccccc1 (stereo unspecified)
inactive: MCF7 > 100 µM | NCI-H23 > 100 µM | DU-145 > 100 µM | K562 > 100 µM | NCI-H522 > 100 µM | SK-OV-3 > 100 µM | SK-MEL-5 > 100 µM | NCI-H460 > 100 µM | OVCAR-8 > 100 µM | SNB-19 > 100 µM | UACC-62 > 100 µM | A498 > 100 µM | MOLT-4 > 100 µM | UO-31 > 100 µM | T47D > 100 µM | LOX IMVI > 100 µM | HOP-92 > 100 µM | CCRF-CEM > 100 µM

COCCNC1CCC2(SCCS2)c2[nH]c3ccccc3c21 (stereo unspecified)
inactive: MCF7 16.8 µM | NCI-H23 > 100 µM | DU-145 39.3 µM | K562 32.2 µM | SNB-75 90.8 µM | NCI-H522 30.8 µM | PC-3 28.6 µM | SK-MEL-5 25.1 µM | NCI-H460 67.8 µM | OVCAR-8 46.1 µM | SNB-19 > 100 µM | A498 25.5 µM | MOLT-4 29.2 µM | UO-31 > 10 µM | LOX IMVI 16.5 µM | HOP-92 21.8 µM | CCRF-CEM 35.2 µM

CC(=O)/C=C1\Nc2ccccc2N\C1=C/C(C)=O
inactive: NCI-H23 31.2 µM | DU-145 30 µM | K562 26.6 µM | SNB-75 26.9 µM | NCI-H522 11.1 µM | SK-OV-3 30.6 µM | PC-3 37.9 µM | SK-MEL-5 16.8 µM | NCI-H460 16.5 µM | OVCAR-8 24.7 µM | SNB-19 38.5 µM | UACC-62 20.1 µM | A498 27.2 µM | MOLT-4 14.5 µM | UO-31 36.6 µM | T47D 19.5 µM | LOX IMVI 24.5 µM | HOP-92 24.4 µM | CCRF-CEM 17.2 µM

CCCCNC(=O)Cn1c2ccc(Br)cc2c2nc3ccccc3nc21
inactive: NCI-H23 > 100 µM | DU-145 > 100 µM | K562 > 100 µM | SNB-75 51.9 µM | PC-3 > 100 µM | SK-MEL-5 > 100 µM | OVCAR-8 33.3 µM | SNB-19 > 100 µM | UACC-62 > 100 µM | A498 > 100 µM | MOLT-4 > 100 µM | UO-31 > 100 µM | T47D 93.8 µM | LOX IMVI > 100 µM | HOP-92 > 100 µM | CCRF-CEM > 100 µM

N#Cc1ccc(C2NN=CC23C(=O)c2ccccc2OC3c2ccccc2)cc1 (stereo unspecified)
inactive: MCF7 34.2 µM | NCI-H23 30.1 µM | DU-145 47.1 µM | K562 33.5 µM | NCI-H522 24.2 µM | SK-OV-3 31.8 µM | PC-3 29.7 µM | SK-MEL-5 23.7 µM | NCI-H460 27.4 µM | OVCAR-8 42.4 µM | SNB-19 27.6 µM | UACC-62 26.7 µM | A498 26.9 µM | MOLT-4 22.3 µM | UO-31 19.2 µM | LOX IMVI 30.9 µM | CCRF-CEM 32.6 µM

O=C(Cn1ccnc1[N+](=O)[O-])c1ccc(F)cc1
inactive: NCI-H23 > 100 µM | K562 > 100 µM | SNB-75 > 100 µM | NCI-H522 > 100 µM | SK-OV-3 > 100 µM | SK-MEL-5 > 100 µM | NCI-H460 > 100 µM | OVCAR-8 > 100 µM | SNB-19 > 100 µM | UACC-62 > 100 µM | A498 > 100 µM | MOLT-4 > 100 µM | UO-31 > 100 µM | LOX IMVI > 100 µM | HOP-92 > 100 µM | CCRF-CEM > 100 µM

CCOC(=O)Cc1nc2cc(F)c(F)cc2[nH]c1=O
inactive: MCF7 > 100 µM | NCI-H23 > 100 µM | DU-145 > 100 µM | K562 > 100 µM | SNB-75 > 100 µM | SK-OV-3 > 100 µM | PC-3 > 100 µM | SK-MEL-5 > 100 µM | NCI-H460 > 100 µM | OVCAR-8 > 100 µM | SNB-19 > 100 µM | UACC-62 > 100 µM | MOLT-4 > 100 µM | UO-31 > 100 µM | LOX IMVI > 100 µM | HOP-92 > 100 µM | CCRF-CEM > 100 µM

CN(C)C(=N)NC(=S)N(C)C
inactive: NCI-H23 > 100 µM | K562 > 100 µM | SNB-75 > 100 µM | NCI-H522 > 100 µM | SK-OV-3 > 100 µM | SK-MEL-5 > 100 µM | NCI-H460 > 100 µM | OVCAR-8 > 100 µM | SNB-19 > 100 µM | UACC-62 > 100 µM | A498 > 100 µM | MOLT-4 > 100 µM | UO-31 > 100 µM | LOX IMVI > 100 µM | HOP-92 > 100 µM | CCRF-CEM > 100 µM

COc1ccc(C(=O)NCCC2CN(S(=O)(=O)C(F)(F)F)c3ccccc32)c(OC)c1 (stereo unspecified)
inactive: MCF7 52.1 µM | NCI-H23 32.8 µM | DU-145 > 100 µM | K562 28.3 µM | NCI-H522 19.3 µM | SK-OV-3 > 100 µM | PC-3 36 µM | SK-MEL-5 15.2 µM | NCI-H460 33.6 µM | SNB-19 54.5 µM | UACC-62 26.9 µM | A498 > 100 µM | MOLT-4 29.1 µM | UO-31 43 µM | HOP-92 61.4 µM | CCRF-CEM 17.2 µM

CCCCc1ccc(Nc2cc(=O)n(C)c(=O)[nH]2)cc1
inactive: MCF7 22.9 µM | NCI-H23 > 100 µM | K562 85.7 µM | SNB-75 > 100 µM | NCI-H522 > 100 µM | SK-OV-3 > 100 µM | PC-3 91.2 µM | SK-MEL-5 > 100 µM | NCI-H460 32.2 µM | OVCAR-8 57 µM | SNB-19 52.1 µM | UACC-62 > 100 µM | A498 > 100 µM | UO-31 > 100 µM | T47D > 100 µM | LOX IMVI 39.8 µM | HOP-92 26.7 µM

Cc1cc(C)nc(NS(=O)(=O)c2ccc(NC(=O)COC(=O)c3cccc4c(=O)c5ccccc5[nH]c34)cc2)n1
inactive: NCI-H23 29.7 µM | K562 32 µM | SNB-75 31 µM | NCI-H522 27.2 µM | SK-OV-3 38.8 µM | SK-MEL-5 40.6 µM | NCI-H460 49 µM | OVCAR-8 32.1 µM | SNB-19 26.8 µM | UACC-62 19.5 µM | A498 30.3 µM | MOLT-4 31.3 µM | UO-31 61.9 µM | LOX IMVI 20.5 µM | HOP-92 31.1 µM | CCRF-CEM 34.3 µM

Cc1ccc2nc(CN3CCCCC3)cc(=O)n2c1
inactive: MCF7 > 100 µM | NCI-H23 > 100 µM | DU-145 > 100 µM | K562 > 100 µM | SNB-75 > 100 µM | NCI-H522 > 100 µM | SK-OV-3 > 100 µM | PC-3 > 100 µM | NCI-H460 > 100 µM | OVCAR-8 > 100 µM | SNB-19 > 100 µM | UACC-62 > 100 µM | MOLT-4 > 100 µM | UO-31 > 100 µM | LOX IMVI > 100 µM | HOP-92 > 100 µM | CCRF-CEM > 100 µM

C[n+]1c2ccccc2c(C(=O)Nc2ccc(S(=O)(=O)Nc3ncccn3)cc2)c2ccccc21
inactive: MCF7 > 100 µM | NCI-H23 > 100 µM | DU-145 > 100 µM | K562 97.5 µM | SNB-75 72.8 µM | SK-OV-3 > 100 µM | PC-3 57 µM | SK-MEL-5 58.9 µM | NCI-H460 > 100 µM | OVCAR-8 > 100 µM | SNB-19 > 100 µM | UACC-62 > 100 µM | MOLT-4 25.8 µM | UO-31 75.5 µM | T47D > 100 µM | LOX IMVI 79.3 µM

N#COc1ccc(Oc2ccc(OC#N)cc2)cc1
inactive: NCI-H23 70.5 µM | K562 36.7 µM | SNB-75 93.5 µM | NCI-H522 43.4 µM | SK-OV-3 > 100 µM | SK-MEL-5 > 100 µM | NCI-H460 28.2 µM | OVCAR-8 > 100 µM | SNB-19 > 100 µM | UACC-62 47.1 µM | A498 > 100 µM | MOLT-4 72.4 µM | UO-31 89.7 µM | LOX IMVI 19.3 µM | HOP-92 > 100 µM | CCRF-CEM 22.5 µM

c1ccc2c(c1)[nH]c1c2ncc2[nH]c3ccccc3c21
inactive: NCI-H23 10.4 µM | K562 2.55 µM | SNB-75 3.52 µM | NCI-H522 4.74 µM | SK-OV-3 14.1 µM | SK-MEL-5 5.48 µM | NCI-H460 2.13 µM | OVCAR-8 3.23 µM | SNB-19 2.94 µM | UACC-62 1.76 µM | A498 2.72 µM | MOLT-4 3.05 µM | UO-31 4.05 µM | LOX IMVI 1.94 µM | HOP-92 2.57 µM | CCRF-CEM 3.03 µM

COc1ccc(Nc2cc(O)nc(O)n2)cc1
inactive: MCF7 > 100 µM | NCI-H23 > 100 µM | DU-145 > 100 µM | K562 > 100 µM | SNB-75 84.3 µM | PC-3 > 100 µM | SK-MEL-5 > 100 µM | NCI-H460 > 100 µM | OVCAR-8 > 100 µM | SNB-19 > 100 µM | A498 > 100 µM | MOLT-4 > 100 µM | UO-31 > 100 µM | LOX IMVI > 100 µM | HOP-92 > 100 µM | CCRF-CEM > 100 µM
